The values below come from patent publication US20260132132A1, “3A,4,5,6-TETRAHYDRO-1 H-PYRAZOLO[3,4-C]PYRIDIN-7(7AH)-ONE DERIVATIVES AS FACTOR XIIA INHIBITORS” (KALVISTA PHARMACEUTICALS LIMITED, priority 2022, published 2026).

Molecules are shown by their SMILES.

Assay [1] concerns the target T1, Human Factor XIIa (hFXIIa) (Homo sapiens, UniProt P00748).
T1 construct: purchased Enzyme Research Laboratories
T1 sequence (P00748 373-615 limits assumed): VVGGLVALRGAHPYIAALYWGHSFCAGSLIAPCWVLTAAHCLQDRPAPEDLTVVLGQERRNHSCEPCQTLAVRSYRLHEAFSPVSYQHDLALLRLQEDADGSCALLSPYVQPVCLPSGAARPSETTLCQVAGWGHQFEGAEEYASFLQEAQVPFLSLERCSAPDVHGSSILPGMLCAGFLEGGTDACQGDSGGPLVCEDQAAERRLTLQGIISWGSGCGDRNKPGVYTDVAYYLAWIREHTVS
T1 sequence (P00748 20-372 partner limits assumed): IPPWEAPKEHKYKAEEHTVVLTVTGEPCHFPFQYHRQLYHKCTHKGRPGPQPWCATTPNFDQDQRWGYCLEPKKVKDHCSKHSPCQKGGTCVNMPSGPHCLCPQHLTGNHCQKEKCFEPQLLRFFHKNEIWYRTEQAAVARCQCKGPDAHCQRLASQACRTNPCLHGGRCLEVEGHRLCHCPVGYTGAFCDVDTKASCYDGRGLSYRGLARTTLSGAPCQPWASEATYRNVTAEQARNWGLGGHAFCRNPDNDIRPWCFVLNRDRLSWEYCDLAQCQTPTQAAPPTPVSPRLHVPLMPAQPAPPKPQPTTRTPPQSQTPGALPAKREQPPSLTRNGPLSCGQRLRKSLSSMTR
Description: Determination of Human Factor XIIa (hFXIIa) inhibition, fluorogenic substrate IC50 assay. Format: biochemical. Particulars: fluorogenic substrate H-DPro-Phe-Arg-AFC at Km, 25° C., read-out: Human FXIIa IC50. Here is the method:
Determination of Human Factor XIIa (hFXIIa) inhibition
The Km for the cleavage of the substrate by hFXIIa was determined by standard transformation of the Michaelis-Menten equation, with subsequent inhibition assays performed at substrate Km concentration.

The next assay has as its target FXa (Homo sapiens, UniProt P00742). As to the kind of experiment: Related protease inhibition: FXa, fluorogenic substrate. Format: biochemical. As to conditions: fluorogenic substrate at Km, 25° C.; H1-H3 = % activity at 40 μM. Here is the method: Human serine protease enzyme Plasma Kallikrein, KLK1, FXa, Plasmin, Thrombin and Trypsin were assayed for enzymatic activity using an appropriate fluorogenic substrate at Km concentration, FXIa at fixed substrate concentration of 100 μM and various concentrations of the test compound.

Chain of FXa (P00742 235-488 limits assumed): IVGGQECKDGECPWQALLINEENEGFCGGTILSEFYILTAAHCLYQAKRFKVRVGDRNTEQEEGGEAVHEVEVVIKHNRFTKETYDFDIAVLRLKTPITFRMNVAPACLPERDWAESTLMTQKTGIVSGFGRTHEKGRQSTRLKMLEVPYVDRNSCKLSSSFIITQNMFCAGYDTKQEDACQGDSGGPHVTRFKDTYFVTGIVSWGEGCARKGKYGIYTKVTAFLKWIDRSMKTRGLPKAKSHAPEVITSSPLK
Chain of FXa (P00742 41-179 partner limits assumed): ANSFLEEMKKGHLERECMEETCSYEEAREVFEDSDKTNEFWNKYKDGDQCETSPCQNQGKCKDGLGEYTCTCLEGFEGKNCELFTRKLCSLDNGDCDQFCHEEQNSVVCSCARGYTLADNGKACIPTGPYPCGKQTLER

In the case of `CN1CCc2ccc(N3CCc4c(C(=O)NCC5CC5)nn(-c5cc(Cl)cc(C#N)c5)c4C3=O)cc2C1=O` [Example 2013, 1-(3-chloro-5-cyanophenyl)-N-(cyclopropylmethyl)-6-(2-methyl-1-oxo-1,2,3,4-tetrahydroisoquinolin-7-yl)-7-oxo-4,5,6,7-tetrahydro-1H-pyrazolo[3,4-c]pyridine-3-carboxamide], the IC50 (in general, the midpoint of a concentration-inhibition curve) in assay [1] is 3 to 10 µM; on FXa, greater than 40 µM.
For the molecule `Cc1cc(CNC(=O)c2nn(-c3cccc(Cl)c3F)c3c2CCN(c2ccc4c(c2)C(=O)N(C)CC4)C3=O)n[nH]1` [Example 2040, 1-(3-chloro-2-fluorophenyl)-6-(2-methyl-1-oxo-1,2,3,4-tetrahydroisoquinolin-7-yl)-N-((5-methyl-1H-pyrazol-3-yl)methyl)-7-oxo-4,5,6,7-tetrahydro-1H-pyrazolo[3,4-c]pyridine-3-carboxamide], the figures for the IC50 (in assay [1]; against FXa) were 0.01 to 0.1 µM and 10 to 40 µM, respectively.
In the case of `COc1cccnc1CNC(=O)c1nn(-c2cccc(Cl)c2)c2c1CCN(c1ccc3c(c1)CN(CCO)CC3)C2=O` [Example 1160, 1-(3-chlorophenyl)-6-(2-(2-hydroxyethyl)-1,2,3,4-tetrahydroisoquinolin-7-yl)-N-((3-methoxypyridin-2-yl)methyl)-7-oxo-4,5,6,7-tetrahydro-1H-pyrazolo[3,4-c]pyridine-3-carboxamide], the IC50 is 0.01 to 0.1 µM in assay [1] and greater than 40 µM on FXa.
Consider `CS(=O)(=O)CCN1CCc2ccc(N3CCc4c(C(=O)NCC5CC5)nn(-c5cccc(Cl)c5)c4C3=O)cc2C1` [Example 1176, 1-(3-chlorophenyl)-N-(cyclopropylmethyl)-6-(2-(2-(methylsulfonyl)ethyl)-1,2,3,4-tetrahydroisoquinolin-7-yl)-7-oxo-4,5,6,7-tetrahydro-1H-pyrazolo[3,4-c]pyridine-3-carboxamide], for which the figures for the half-maximal inhibitory concentration (IC50) (in assay [1]; at FXa) were 0.3 to 1 µM and greater than 40 µM, respectively.
On to `O=C(NCC1CC1)c1nn(-c2cccc(Cl)c2)c2c1CCN(c1ccc3c(c1)CN(C(=O)CO)CC3)C2=O` [Example 1114, 1-(3-chlorophenyl)-N-(cyclopropylmethyl)-6-(2-(2-hydroxyacetyl)-1,2,3,4-tetrahydroisoquinolin-7-yl)-7-oxo-4,5,6,7-tetrahydro-1H-pyrazolo[3,4-c]pyridine-3-carboxamide], for which the IC50 in assay [1] was 3 to 10 µM; against FXa, greater than 40 µM.
Turning to `CCN1CCc2ccc(N3CCc4c(C(=O)NCc5cc(C6CC6)n[nH]5)nn(-c5cccc(Cl)c5)c4C3=O)cc2C1` [Example 1150, 1-(3-chlorophenyl)-N-((3-cyclopropyl-1H-pyrazol-5-yl)methyl)-6-(2-ethyl-1,2,3,4-tetrahydroisoquinolin-7-yl)-7-oxo-4,5,6,7-tetrahydro-1H-pyrazolo[3,4-c]pyridine-3-carboxamide], the IC50 in assay [1] was 0.01 to 0.1 µM; on FXa, 3 to 10 µM.
The like results for `Cc1ncc(CNC(=O)c2nn(-c3cccc(Cl)c3)c3c2CCN(c2ccc4c(c2)C(=O)N(C)CC4)C3=O)o1` [Example 1194, 1-(3-chlorophenyl)-6-(2-methyl-1-oxo-1,2,3,4-tetrahydroisoquinolin-7-yl)-N-((2-methyloxazol-5-yl)methyl)-7-oxo-4,5,6,7-tetrahydro-1H-pyrazolo[3,4-c]pyridine-3-carboxamide] were, in that order, 0.3 to 1 µM and greater than 40 µM.
Regarding `O=C(NCC1CCOC1)c1nn(-c2cccc(Cl)c2)c2c1CCN(c1ccc3c(c1)C(=O)N(CCO)CC3)C2=O` (stereo not drawn) [Example 1260, 1-(3-chlorophenyl)-6-(2-(2-hydroxyethyl)-1-oxo-1,2,3,4-tetrahydroisoquinolin-7-yl)-7-oxo-N-((tetrahydrofuran-3-yl)methyl)-4,5,6,7-tetrahydro-1H-pyrazolo[3,4-c]pyridine-3-carboxamide], the IC50 in assay [1] is 0.3 to 1 µM; against FXa, greater than 40 µM.
As to `Cc1cc(CNC(=O)c2nn(-c3cccc(Cl)c3)c3c2CCN(c2cc4c(cc2F)CCN(CCO)C4)C3=O)[nH]n1` [Example 1125, 1-(3-chlorophenyl)-6-(6-fluoro-2-(2-hydroxyethyl)-1,2,3,4-tetrahydroisoquinolin-7-yl)-N-((3-methyl-1H-pyrazol-5-yl)methyl)-7-oxo-4,5,6,7-tetrahydro-1H-pyrazolo[3,4-c]pyridine-3-carboxamide], the IC50 in assay [1] fell in the range of 0.01 to 0.1 µM; at FXa it was 10 to 40 µM.
Regarding `Cn1ccc(CNC(=O)c2nn(-c3cccc(Cl)c3)c3c2CCN(c2ccc4c(c2)CN(CCO)CC4)C3=O)n1` [Example 1132, 1-(3-chlorophenyl)-6-(2-(2-hydroxyethyl)-1,2,3,4-tetrahydroisoquinolin-7-yl)-N-((1-methyl-1H-pyrazol-3-yl)methyl)-7-oxo-4,5,6,7-tetrahydro-1H-pyrazolo[3,4-c]pyridine-3-carboxamide], the IC50 in assay [1] fell in the range of 0.01 to 0.1 µM; against FXa, 10 to 40 µM.
As for `Cc1cc(CNC(=O)c2nn(-c3cccc(Cl)c3)c3c2CCN(c2ccc4c(c2)C(=O)N(C)CC4)C3=O)nn1C` [Example 1199, 1-(3-chlorophenyl)-N-((1,5-dimethyl-1H-pyrazol-3-yl)methyl)-6-(2-methyl-1-oxo-1,2,3,4-tetrahydroisoquinolin-7-yl)-7-oxo-4,5,6,7-tetrahydro-1H-pyrazolo[3,4-c]pyridine-3-carboxamide], the results for the IC50 (in assay [1]; against FXa) were 0.1 to 0.3 µM and 10 to 40 µM, respectively.
Regarding `C[C@H]1CN(CCO)Cc2cc(N3CCc4c(C(=O)NCC5CC5)nn(-c5cccc(Cl)c5)c4C3=O)ccc21` [Example 1152, (R)-1-(3-chlorophenyl)-N-(cyclopropylmethyl)-6-(2-(2-hydroxyethyl)-4-methyl-1,2,3,4-tetrahydroisoquinolin-7-yl)-7-oxo-4,5,6,7-tetrahydro-1H-pyrazolo[3,4-c]pyridine-3-carboxamide], the values for the IC50 (in assay [1]; on FXa) were 0.3 to 1 µM and greater than 40 µM, respectively.
Consider `CCN1CCOc2ccc(N3CCc4c(C(=O)NCC5CC5)nn(-c5cccc(Cl)c5)c4C3=O)cc2C1=O` [Example 1374, 1-(3-chlorophenyl)-N-(cyclopropylmethyl)-6-(4-ethyl-5-oxo-2,3,4,5-tetrahydrobenzo[f][1,4]oxazepin-7-yl)-7-oxo-4,5,6,7-tetrahydro-1H-pyrazolo[3,4-c]pyridine-3-carboxamide], for which the IC50 fell in the range of 0.1 to 0.3 µM in assay [1] and 10 to 40 µM on FXa.
On to `O=C(O)CN1CCc2ccc(N3CCc4c(C(=O)NCC5CC5)nn(-c5cccc(Cl)c5)c4C3=O)cc2C1=O` [Example 1330, 2-(7-(1-(3-chlorophenyl)-3-((cyclopropylmethyl)carbamoyl)-7-oxo-1,4,5,7-tetrahydro-6H-pyrazolo[3,4-c]pyridin-6-yl)-1-oxo-3,4-dihydroisoquinolin-2(1H)-yl)acetic acid], for which the concentration for half-maximal inhibition (IC50) in assay [1] is 1 to 3 µM; against FXa, greater than 40 µM.
Turning to `CN1CCc2ccc(N3CCc4c(C(=O)NC5(C)CCOCC5)nn(-c5cccc(Cl)c5)c4C3=O)cc2C1=O` [Example 1266, 1-(3-chlorophenyl)-6-(2-methyl-1-oxo-1,2,3,4-tetrahydroisoquinolin-7-yl)-N-(4-methyltetrahydro-2H-pyran-4-yl)-7-oxo-4,5,6,7-tetrahydro-1H-pyrazolo[3,4-c]pyridine-3-carboxamide], the IC50 was 0.3 to 1 µM in assay [1] and greater than 40 µM on FXa.
`Cc1ccncc1CNC(=O)c1nn(-c2cccc(Cl)c2F)c2c1CCN(c1ccc3c(c1)CN(CCO)CC3)C2=O` [Example 2002, 1-(3-Chloro-2-fluorophenyl)-6-(2-(2-hydroxyethyl)-1,2,3,4-tetrahydroisoquinolin-7-yl)-N-((4-methylpyridin-3-yl)methyl)-7-oxo-4,5,6,7-tetrahydro-1H-pyrazolo[3,4-c]pyridine-3-carboxamide]: the results for the IC50 (in assay [1]; against FXa) were 0.01 to 0.1 µM and greater than 40 µM, respectively.
On to `CN1CCc2ccc(N3CCc4c(C#N)nn(-c5cccc(Cl)c5)c4C3=O)cc2C1=O` [Example 1388, 1-(3-chlorophenyl)-6-(2-methyl-1-oxo-1,2,3,4-tetrahydroisoquinolin-7-yl)-7-oxo-4,5,6,7-tetrahydro-1H-pyrazolo[3,4-c]pyridine-3-carbonitrile], for which the IC50 in assay [1] fell in the range of 0.3 to 1 µM; on FXa, 1 to 3 µM.
With `Cc1cn(C)nc1CNC(=O)c1nn(-c2cccc(Cl)c2)c2c1CCN(c1ccc3c(c1)C(=O)N(C)CC3)C2=O` [Example 1225, 1-(3-chlorophenyl)-N-((1,4-dimethyl-1H-pyrazol-3-yl)methyl)-6-(2-methyl-1-oxo-1,2,3,4-tetrahydroisoquinolin-7-yl)-7-oxo-4,5,6,7-tetrahydro-1H-pyrazolo[3,4-c]pyridine-3-carboxamide], the IC50 in assay [1] was 0.1 to 0.3 µM; against FXa it was 10 to 40 µM.
